Legend:
Rat [1] = assay: concentration in plasma after dosing; settings: 1.5 h; dosed: Potassium Perfluorobutane Sulfonate; 4 mg/kg; oral; Male; Harlan Sprague Dawley
Rat [2] = assay: concentration in kidney after dosing; settings: 1 h; dosed: Potassium Perfluorobutane Sulfonate; 20 mg/kg; oral; Male; Harlan Sprague Dawley
Rat [3] = assay: concentration in plasma after dosing; settings: 0.25 h; dosed: Potassium Perfluorobutane Sulfonate; 4 mg/kg; iv; Male; F344
Rat [4] = assay: concentration in plasma after dosing; settings: dosed: Potassium Perfluorobutane Sulfonate, 4 mg/kg, iv, Male, F344
Rat [5] = assay: concentration in plasma after dosing; settings: dosed: Potassium Perfluorobutane Sulfonate, 4 mg/kg, oral, Male, Harlan Sprague Dawley
Rat [6] = assay: concentration in plasma after dosing; settings: dosed: Potassium Perfluorobutane Sulfonate, 4 mg/kg, oral, Male, Harlan Sprague Dawley; remark: listed apart in the source
Rat [7] = assay: concentration in kidney after dosing; settings: 12 h; dosed: Perfluorooctanoic acid; 80 mg/kg; oral; Female; Harlan Sprague Dawley
Rat [8] = assay: concentration in kidney after dosing; settings: 3 h; dosed: Perfluorooctanoic acid; 80 mg/kg; oral; Female; Harlan Sprague Dawley
Rat [9] = assay: concentration in liver after dosing; settings: 3 h; dosed: Fluorotelomer alcohol 8+2; 24 mg/kg; oral; Male; Harlan Sprague Dawley
Rat [10] = assay: concentration in brain after dosing; settings: 12 h; dosed: Perfluorooctanoic acid; 12 mg/kg; oral; Male; Harlan Sprague Dawley
Rat [11] = assay: concentration in plasma after dosing; settings: dosed: 678-39-7, 40 mg/kg, iv, Male, F344
Rat [12] = assay: concentration in liver after dosing; settings: 6 h; dosed: Fluorotelomer alcohol 8+2; 24 mg/kg; oral; Male; Harlan Sprague Dawley
Rat [13] = assay: concentration in kidney after dosing; settings: 6 h; dosed: Fluorotelomer alcohol 8+2; 80 mg/kg; oral; Female; Harlan Sprague Dawley
Rat [14] = assay: concentration in liver after dosing; settings: 24 h; dosed: Perfluorooctanoic acid; 80 mg/kg; oral; Female; Harlan Sprague Dawley
Mouse [15] = assay: concentration in plasma after dosing; settings: 10 min; dosed: 2-Hydroxy-4-methoxybenzophenone; 50 mg/kg; iv; Female; B6C3F1
Mouse [16] = assay: concentration in plasma after dosing; settings: 2 h; dosed: 2-Hydroxy-4-methoxybenzophenone; 250 mg/kg; oral; Female; B6C3F1
Rat [17] = assay: concentration in plasma after dosing; settings: 6 h; dosed: 2-Hydroxy-4-methoxybenzophenone; 500 mg/kg; oral; Male; F344
Rat [18] = assay: concentration in plasma after dosing; settings: dosed: 2-Hydroxy-4-methoxybenzophenone, 100 mg/kg, oral, Male, F344
Mouse [19] = assay: concentration in plasma after dosing; settings: 0.25 h; dosed: 2-Hydroxy-4-methoxybenzophenone; 50 mg/kg; iv; Male; B6C3F1
rat [20] = assay: amount in expired air after dosing (umol); settings: dosed: methanol, 100 mg/kg, iv, male, CDF(F344)/CrlBR
rat [21] = assay: concentration in blood after dosing; settings: dosed: methanol, male, CDF(F344)/CrlBR
Rat [22] = assay: concentration in plasma after dosing; settings: 10 min; dosed: Nitrite; 80 mg/kg; oral; Female; F344
Rat [23] = assay: concentration in plasma after dosing; settings: 0.5 h; dosed: Nitrite; 80 mg/kg; oral; Female; F344
Rat [24] = assay: concentration in plasma after dosing; settings: 0.5 h; dosed: Nitrite; 40 mg/kg; oral; Female; F344
rat [25] = assay: concentration in blood after dosing (ugEq/g tissue); settings: dosed: benzo[a]pyrene, iv, male, Wistar

O=S(=O)([O-])C(F)(F)C(F)(F)C(F)(F)C(F)(F)F.[K+] [Potassium Perfluorobutane Sulfonate]
Settings | concentration in kidney [ng/g] | concentration in plasma [ng/mL]
Rat [1] | – | 12600
Rat [2] | 28600 | –
Rat [3] | – | 17900

Settings | concentration in plasma [ng/mL]
Rat [4], 0.25 h | 27200
Rat [4], 6 h | 4170
Rat [5], 1 h | 13800
Rat [5], 24 h | 245
Rat [6], 0.5 h | 6060
Rat [6], 9 h | 5230

O=C(O)C(F)(F)C(F)(F)C(F)(F)C(F)(F)C(F)(F)C(F)(F)C(F)(F)F [Perfluorooctanoic acid]
Settings | concentration in brain [ng/g] | concentration in kidney [ng/g] | concentration in liver [ng/g]
Rat [7] | – | 93700 | –
Rat [8] | – | 321000 | –
Rat [9] | – | – | 1430
Rat [10] | 1260 | – | –
Rat [12] | – | – | 1350
Rat [13] | – | 1730 | –
Rat [14] | – | – | 7880

Rat [11]
Settings | concentration in plasma [ng/mL]
0.5 h | 219000
3 h | 1660
12 h | 28000

COc1ccc(C(=O)c2ccccc2)c(O)c1 [2-Hydroxy-4-methoxybenzophenone]
Settings | concentration in plasma [ng/mL]
Mouse [15] | 11500
Mouse [16] | 832
Mouse [19] | 7710
Rat [17] | 189

Rat [18]
Settings | concentration in plasma [ng/mL]
3 h | 21.2
10 min | 17.3

CO [methanol]
rat [20]
Settings | amount in expired air
0.5482 h | 3.95
1.003 h | 4.75
1.458 h | 5.56
1.963 h | 7.78
2.999 h | 10.5
4.439 h | 14.9
5.98 h | 17.6
8.026 h | 18.8
10.01 h | 19.4
12.02 h | 20.1
15.07 h | 19.5

rat [21], 200 ppm, inhalation, duration: 6 hr
Settings | concentration in blood [ng/mL]
0 h | 4780
0.5 h | 2950
1 h | 1990
1.5 h | 3160
2 h | 2100
3 h | 949
4.5 h | 1730
6 h | 396
8 h | 704
10 h | 528

rat [21], 100 mg/kg, iv
Settings | concentration in blood [ng/mL]
0.3747 h | 90900
0.621 h | 80500
1.114 h | 70300
1.606 h | 61300
2.08 h | 60600
3.027 h | 39200
4.505 h | 26100
6.002 h | 12200

O=N[O-] [Nitrite]
Settings | concentration in plasma [ng/mL]
Rat [22] | 22900
Rat [23] | 69300
Rat [24] | 11600

c1ccc2c(c1)cc1ccc3cccc4ccc2c1c34 [benzo[a]pyrene]
concentration in blood, rat [25]
Settings | 2 mg/kg | 6 mg/kg | 15 mg/kg
0.5 h | 0.66 | 2.42 | 13.8
0.75 h | 0.47 | 1.99 | 10.6
1 h | 0.42 | 1.72 | 8.52
1.5 h | 0.17 | 0.5 | 7.16
2 h | 0.35 | 0.14 | 3.93
3 h | – | 0.03 | 1.86
4 h | – | – | 0.19
5 h | – | 0.01 | 0.09
5 min | 2.64 | 4.66 | 28.8
6 h | – | – | 0.05
8 h | – | – | 0.02
10 min | 1.85 | 5 | 29.8
20 min | 1.2 | 3.78 | 15.9
24 h | – | – | 0.015
32 h | – | – | 0.002
